Results: patent publication EP0234499A2, “Antifungal azolylpropanol derivatives” (SHIONOGI SEIYAKU KABUSHIKI KAISHA, priority 1986, dated 1987)

Assays:
[1] = test system: Candida albicans KE-2; assay: Inhibition test against pseudomycelium formation of Candida albicans; type: cell-based; settings: minimum effective concentration preventing typical pseudomycelium formation, Eagle-MEM medium with 20 % calf serum, 1 x 10^6 yeast cells/ml, 18 hours at 37 °C, two fold dilution series; for minimal effective concentration: Candida albicans, KE2, read-out: Inhibition for Pseudomyselium Formation of Candida albicans (MEC, μg/ml)
Procedure: Inhibition test against psendomycelium formation of Candida albicans Candida albicans KE-2 was inoculated to Eagle-MEM medium (Nissan 2 made by Nissui Seiyaku, Ltd.) supplemented with 20 % calf serum so that its final inoculum of yeast cell might be 1 x 10^6 yeast cells per milliliter. The test compounds are added thereon in two fold dilution series. After incubation for 18 hours at 37 °C, the fungal growth in each drug concentration is smeared and fixed on a slide glass, and its morphological feature on the presence or absence of the psendomycelium formation is examined by a microscope following Giemsa staining. Minimum effective concentration (MEC, µg/ml) is defined as the lowest concentration of the compound which prevented typical pseudo- mycelium formation.

[2] = test system: Candida albicans KE-2; assay: Therapeutic effect against experimental candidiasis in mice; type: in vivo, Jcl-ICR female mice; settings: mouse survival ratio on the 5th day after infection, 50 mg/kg orally three times (0, 4 and 24 hours after infection), i.v. infection with 2 x 10^6 cells, eight mice per group; for Therapeutic Effect (%): 50 mg/kg; for responders at 50 mg/kg: Candida albicans, KE2, po, 120 h
Procedure: Therapeutic effect against experimental candidiasis in mice After Candida albicans KE-2 is incubated on Sabouraud's glucose agar at 28 °C for 48 hr., it is suspended in Sabouraud's glucose broth and the cells (2 ^x 10^6) are injected to a tail vein of Jcl-ICR female mice (4 weeks age; weight : 18 - 20 g). A suspension of the test compound in 2 % gum arabic is orally administered three times, immediately after infection of the yeast ( 0 hour), after 4 hours and after 24 hours, as a dosage of 50 mg/kg. Non-treated group is used as control. Eight mice per group are used in the control group and the treated group. All the mice in the control group died within 48 hours after infection. Therapeutic effect of the test compound is judged by mouse survival ratio on the 5th day after infection.

SMILES	Inhibition for Pseudomyselium Formation of Candida albicans (MEC, μg/ml) [1] [µg/mL]	Therapeutic Effect (%) [2] [%]	minimal effective concentration [1] [µg/mL]	responders at 50 mg/kg [2] [%]
COC(n1cccn1)C(O)(Cn1ccnc1)c1ccc(F)cc1F (single isomer, unassigned) [Compound 30]	0.31	50.0	–	–
COC(n1cncn1)C(O)(Cn1cncn1)c1ccc(F)cc1 (single isomer, unassigned) [Compound 24]	–	–	1.25	87.5
COC(n1ccnc1)C(O)(Cn1cncn1)c1ccc(Cl)cc1 (single isomer, unassigned) [Compound 23]	–	–	0.63	–
COC(n1cncn1)C(O)(Cn1cncn1)c1ccc(Cl)cc1 (single isomer, unassigned) [Compound 26]	–	–	–	100
COC(n1cncn1)C(O)(Cn1cncn1)c1ccc(F)cc1F (single isomer, unassigned) [Compound 47, 2-(2,4-Difluorophenyl)-1-methoxy-1,3-bis(1H-1,2,4-tri-azol-1-yl)-2-propanol]	0.31	–	–	–
COC(n1cccn1)C(O)(Cn1ccnc1)c1ccc(Cl)cc1 (single isomer, unassigned) [Compound 36]	0.08	37.5	–	–
COC(n1cccn1)C(O)(Cn1cncn1)c1ccc(F)cc1 (single isomer, unassigned) [Compound 27]	–	–	–	25
COC(n1cccn1)C(O)(Cn1ccnc1)c1ccc(F)cc1 (single isomer, unassigned) [Compound 28]	0.08	62.5	–	–
COC(n1cccn1)C(O)(Cn1ccnc1)c1ccc(F)cc1F (single isomer, unassigned) [Compound 29]	–	100.0	0.31	–
COC(n1cccn1)C(O)(Cn1ccnc1)c1ccc(F)cc1 (single isomer, unassigned) [Compound 31]	1.25	37.5	–	–
COC(n1cccn1)C(O)(Cn1cncn1)c1ccc(Cl)cc1 (single isomer, unassigned) [Compound 34]	–	–	0.63	–
COC(n1ccnc1C)C(O)(Cn1cncn1)c1ccc(Cl)cc1 (single isomer, unassigned) [Compound 45]	–	–	–	37.5
CCOC(n1cncn1)C(O)(Cn1cncn1)c1ccc(F)cc1 (single isomer, unassigned) [Compound 33]	–	–	1.25	–
COC(n1cccn1)C(O)(Cn1cncn1)c1ccc(Cl)cc1 (single isomer, unassigned) [Compound 37]	0.63	–	–	62.5
COC(n1cncn1)C(O)(Cn1cncn1)c1ccc(F)cc1F (single isomer, unassigned) [Compound 21, 2-(2,4-Difluorophenyl)-1-methoxy-1,3-bis(1H-1,2,4-tri-azol-1-yl)-2-propanol]	0.63	–	–	87.5
COC(n1cncn1)C(O)(Cn1cncn1)c1ccccc1F (single isomer, unassigned) [Compound 51]	–	–	0.63	–
COC(n1cnc(C)c1)C(O)(Cn1cncn1)c1ccc(Cl)cc1 (single isomer, unassigned) [Compound 46]	–	–	0.08	12.5
COC(n1cccn1)C(O)(Cn1cncn1)c1ccc(F)cc1F (single isomer, unassigned) [Compound 49]	–	–	0.31	75
COC(n1cccn1)C(O)(Cn1ccnc1)c1ccc(Cl)cc1 (single isomer, unassigned) [Compound 35]	–	–	0.04	25
COC(n1cncn1)C(O)(Cn1ccnc1)c1ccc(Cl)cc1Cl (single isomer, unassigned) [Compound 44]	–	–	–	12.5
COC(n1cccn1)C(O)(Cn1cccn1)c1ccc(Cl)cc1 (single isomer, unassigned) [Compound 38]	–	–	0.31	25
OC(Cn1cncn1)(c1ccc(F)cc1)C(OCC(F)(F)F)n1cncn1 (single isomer, unassigned) [Compound 32]	–	–	–	50
COC(n1cncn1)C(O)(Cn1cncn1)c1ccc(Cl)cc1Cl (single isomer, unassigned) [Compound 25]	–	–	0.31	100
CCOC(n1cncn1)C(O)(Cn1cncn1)c1ccc(Cl)cc1Cl (centres unmarked) [Compound 54]	–	–	–	87.5
COC(n1cncn1)C(O)(Cn1ccnc1)c1ccc(F)cc1F (single isomer, unassigned) [Compound 40]	–	–	–	37.5
